# Source: publication PMC8800111 (The Journal of Biological Chemistry, 2021)
# Key:
# Assay type in all cases: cell-based
# [1] = target: proteins of U3A human fibrosarcoma cells (4462 proteins detected) (Homo sapiens, UniProt Q15365); settings: protein PCBP1; U3A cells
# [2] = target: proteins of U3A human fibrosarcoma cells (4462 proteins detected) (Homo sapiens, UniProt Q99470); settings: protein SDF2, U3A cells
# [3] = target: proteins of U3A human fibrosarcoma cells (4462 proteins detected) (Homo sapiens, UniProt P06756); settings: protein ITGAV; soluble abundance after heat, U3A cells
# [4] = target: proteins of U3A human fibrosarcoma cells (4462 proteins detected) (Homo sapiens, UniProt Q68CP9); settings: protein ARID2; U3A cells
# [5] = target: proteins of U3A human fibrosarcoma cells (4462 proteins detected) (Homo sapiens, UniProt Q9Y608); settings: protein LRRFIP2, U3A cells
# [6] = target: proteins of U3A human fibrosarcoma cells (4462 proteins detected) (Homo sapiens, UniProt Q9H2U1); settings: protein DHX36, U3A cells
# [7] = target: proteins of U3A human fibrosarcoma cells (4462 proteins detected) (Homo sapiens, UniProt Q9H9Y6); settings: protein POLR1B; soluble abundance after heat, U3A cells
# [8] = target: proteins of U3A human fibrosarcoma cells (4462 proteins detected) (Homo sapiens, UniProt Q9NQG5); settings: protein RPRD1B; soluble abundance after heat, U3A cells
# proteins of U3A human fibrosarcoma cells (4462 proteins detected) (Homo sapiens, UniProt Q9NQG5), sequence (Q9NQG5 whole entry): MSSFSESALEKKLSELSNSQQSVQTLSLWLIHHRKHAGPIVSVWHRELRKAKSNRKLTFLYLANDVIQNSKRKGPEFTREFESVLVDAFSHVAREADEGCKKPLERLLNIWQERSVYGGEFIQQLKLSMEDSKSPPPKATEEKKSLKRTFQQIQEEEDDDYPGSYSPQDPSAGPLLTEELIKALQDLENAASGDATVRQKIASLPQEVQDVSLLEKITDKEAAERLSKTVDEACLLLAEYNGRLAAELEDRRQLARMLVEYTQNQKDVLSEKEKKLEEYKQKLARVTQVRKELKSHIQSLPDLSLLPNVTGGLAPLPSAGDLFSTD
# [9] = target: proteins of U3A human fibrosarcoma cells (4462 proteins detected) (Homo sapiens, UniProt Q9NTX5); settings: protein ECHDC1; U3A cells
# [10] = target: proteins of U3A human fibrosarcoma cells (4462 proteins detected) (Homo sapiens, UniProt Q9UK41); settings: protein VPS28; U3A cells
# proteins of U3A human fibrosarcoma cells (4462 proteins detected) (Homo sapiens, UniProt Q9UK41), sequence (Q9UK41 whole entry): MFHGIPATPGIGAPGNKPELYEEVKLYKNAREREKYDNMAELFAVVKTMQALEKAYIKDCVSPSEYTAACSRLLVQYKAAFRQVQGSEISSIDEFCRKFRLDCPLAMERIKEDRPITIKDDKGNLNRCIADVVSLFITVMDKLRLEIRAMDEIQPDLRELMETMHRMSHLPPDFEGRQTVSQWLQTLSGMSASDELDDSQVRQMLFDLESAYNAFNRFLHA
# [11] = target: proteins of U3A human fibrosarcoma cells (4462 proteins detected) (Homo sapiens, UniProt Q5JSH3); settings: protein WDR44, U3A cells
# [12] = target: proteins of U3A human fibrosarcoma cells (4462 proteins detected) (Homo sapiens, UniProt Q9H3H3); settings: protein C11orf68; soluble abundance after heat, U3A cells
# proteins of U3A human fibrosarcoma cells (4462 proteins detected) (Homo sapiens, UniProt Q9H3H3), sequence (Q9H3H3 whole entry): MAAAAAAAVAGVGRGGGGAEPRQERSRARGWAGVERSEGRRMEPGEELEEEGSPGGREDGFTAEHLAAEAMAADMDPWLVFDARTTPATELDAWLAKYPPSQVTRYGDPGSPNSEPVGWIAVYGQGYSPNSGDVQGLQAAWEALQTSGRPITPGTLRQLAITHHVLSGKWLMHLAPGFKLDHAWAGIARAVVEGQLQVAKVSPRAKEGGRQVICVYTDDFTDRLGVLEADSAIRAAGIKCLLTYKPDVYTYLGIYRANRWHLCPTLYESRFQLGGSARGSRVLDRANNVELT
# [13] = target: proteins of U3A human fibrosarcoma cells (4462 proteins detected) (Homo sapiens, UniProt Q8IYB5); settings: protein SMAP1; soluble abundance after heat, U3A cells
# [14] = target: proteins of U3A human fibrosarcoma cells (4462 proteins detected) (Homo sapiens, UniProt P26447); settings: protein S100A4; U3A, 10 μM, 2 h
# [15] = target: proteins of U3A human fibrosarcoma cells (4462 proteins detected) (Homo sapiens, UniProt O15066); settings: protein KIF3B; U3A cells
# proteins of U3A human fibrosarcoma cells (4462 proteins detected) (Homo sapiens, UniProt O15066), sequence (O15066 whole entry): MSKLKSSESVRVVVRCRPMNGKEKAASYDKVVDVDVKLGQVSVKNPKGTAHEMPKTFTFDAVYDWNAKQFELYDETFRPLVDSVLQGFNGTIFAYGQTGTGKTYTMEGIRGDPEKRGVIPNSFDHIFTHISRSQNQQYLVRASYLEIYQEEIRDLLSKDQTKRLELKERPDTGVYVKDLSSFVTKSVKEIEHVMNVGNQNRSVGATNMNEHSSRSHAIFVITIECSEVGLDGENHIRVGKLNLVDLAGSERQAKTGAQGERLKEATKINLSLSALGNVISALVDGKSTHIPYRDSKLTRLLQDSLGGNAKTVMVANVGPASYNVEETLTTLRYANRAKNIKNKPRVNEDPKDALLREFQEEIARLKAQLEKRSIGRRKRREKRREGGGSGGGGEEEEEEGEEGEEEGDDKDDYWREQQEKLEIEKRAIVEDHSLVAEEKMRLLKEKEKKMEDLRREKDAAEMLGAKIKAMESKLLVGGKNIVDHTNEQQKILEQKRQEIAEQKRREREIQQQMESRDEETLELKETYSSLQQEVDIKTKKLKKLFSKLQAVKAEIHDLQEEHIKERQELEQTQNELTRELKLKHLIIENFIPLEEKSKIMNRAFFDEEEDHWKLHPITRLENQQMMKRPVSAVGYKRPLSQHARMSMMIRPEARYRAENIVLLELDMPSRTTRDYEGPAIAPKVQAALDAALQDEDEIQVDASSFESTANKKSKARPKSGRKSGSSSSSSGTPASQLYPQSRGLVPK
# [16] = target: proteins of U3A human fibrosarcoma cells (4462 proteins detected) (Homo sapiens, UniProt P62847); settings: protein RPS24, U3A cells
# [17] = target: proteins of U3A human fibrosarcoma cells (4462 proteins detected) (Homo sapiens, UniProt P52272); settings: protein HNRNPM; U3A cells
# [18] = target: proteins of U3A human fibrosarcoma cells (4462 proteins detected) (Homo sapiens, UniProt P29034); settings: protein S100A2, U3A cells
# proteins of U3A human fibrosarcoma cells (4462 proteins detected) (Homo sapiens, UniProt P29034), sequence (P29034 whole entry): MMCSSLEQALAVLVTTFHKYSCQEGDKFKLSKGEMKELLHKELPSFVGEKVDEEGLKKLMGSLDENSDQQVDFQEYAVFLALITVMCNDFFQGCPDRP
# [19] = target: proteins of U3A human fibrosarcoma cells (4462 proteins detected) (Homo sapiens, UniProt P25787); settings: protein PSMA2, U3A cells
# [20] = target: proteins of U3A human fibrosarcoma cells (4462 proteins detected) (Homo sapiens, UniProt P24666); settings: protein ACP1, U3A cells
# proteins of U3A human fibrosarcoma cells (4462 proteins detected) (Homo sapiens, UniProt P24666), sequence (P24666 whole entry): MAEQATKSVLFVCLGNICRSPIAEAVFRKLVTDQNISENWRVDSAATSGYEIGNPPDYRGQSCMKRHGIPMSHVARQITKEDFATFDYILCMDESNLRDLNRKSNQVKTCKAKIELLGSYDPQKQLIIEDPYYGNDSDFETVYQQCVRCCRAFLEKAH
# [21] = target: proteins of U3A human fibrosarcoma cells (4462 proteins detected) (Homo sapiens, UniProt Q4J6C6); settings: protein PREPL, U3A cells
# [22] = target: proteins of U3A human fibrosarcoma cells (4462 proteins detected) (Homo sapiens, UniProt Q8NBN3); settings: protein TMEM87A; U3A cells
# [23] = target: proteins of U3A human fibrosarcoma cells (4462 proteins detected) (Homo sapiens, UniProt Q06546); settings: protein GABPA; U3A cells
# [24] = target: proteins of U3A human fibrosarcoma cells (4462 proteins detected) (Homo sapiens, UniProt O75909); settings: protein CCNK; U3A cells
# [25] = target: proteins of U3A human fibrosarcoma cells (4462 proteins detected) (Homo sapiens, UniProt Q9BYM8); settings: protein RBCK1; U3A, 10 μM, 2 h
# proteins of U3A human fibrosarcoma cells (4462 proteins detected) (Homo sapiens, UniProt Q9BYM8), sequence (Q9BYM8 whole entry): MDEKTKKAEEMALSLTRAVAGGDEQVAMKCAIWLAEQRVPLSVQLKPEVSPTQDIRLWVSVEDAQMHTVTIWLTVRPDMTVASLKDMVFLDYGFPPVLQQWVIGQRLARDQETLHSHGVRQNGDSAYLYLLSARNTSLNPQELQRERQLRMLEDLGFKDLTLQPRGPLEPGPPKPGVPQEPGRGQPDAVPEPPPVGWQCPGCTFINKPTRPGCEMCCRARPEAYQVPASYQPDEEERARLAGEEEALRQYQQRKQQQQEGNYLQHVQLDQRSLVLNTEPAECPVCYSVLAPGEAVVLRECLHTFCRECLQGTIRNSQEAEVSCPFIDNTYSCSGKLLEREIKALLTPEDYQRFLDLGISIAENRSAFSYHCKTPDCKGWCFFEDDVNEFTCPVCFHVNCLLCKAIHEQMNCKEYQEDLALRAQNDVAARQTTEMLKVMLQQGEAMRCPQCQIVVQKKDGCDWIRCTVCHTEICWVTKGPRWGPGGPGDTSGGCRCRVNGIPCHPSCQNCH
# [26] = target: proteins of U3A human fibrosarcoma cells (4462 proteins detected) (Homo sapiens, UniProt Q6GYQ0); settings: protein RALGAPA1; U3A, 10 μM, 2 h
# proteins of U3A human fibrosarcoma cells (4462 proteins detected) (Homo sapiens, UniProt Q6GYQ0), sequence (Q6GYQ0 whole entry): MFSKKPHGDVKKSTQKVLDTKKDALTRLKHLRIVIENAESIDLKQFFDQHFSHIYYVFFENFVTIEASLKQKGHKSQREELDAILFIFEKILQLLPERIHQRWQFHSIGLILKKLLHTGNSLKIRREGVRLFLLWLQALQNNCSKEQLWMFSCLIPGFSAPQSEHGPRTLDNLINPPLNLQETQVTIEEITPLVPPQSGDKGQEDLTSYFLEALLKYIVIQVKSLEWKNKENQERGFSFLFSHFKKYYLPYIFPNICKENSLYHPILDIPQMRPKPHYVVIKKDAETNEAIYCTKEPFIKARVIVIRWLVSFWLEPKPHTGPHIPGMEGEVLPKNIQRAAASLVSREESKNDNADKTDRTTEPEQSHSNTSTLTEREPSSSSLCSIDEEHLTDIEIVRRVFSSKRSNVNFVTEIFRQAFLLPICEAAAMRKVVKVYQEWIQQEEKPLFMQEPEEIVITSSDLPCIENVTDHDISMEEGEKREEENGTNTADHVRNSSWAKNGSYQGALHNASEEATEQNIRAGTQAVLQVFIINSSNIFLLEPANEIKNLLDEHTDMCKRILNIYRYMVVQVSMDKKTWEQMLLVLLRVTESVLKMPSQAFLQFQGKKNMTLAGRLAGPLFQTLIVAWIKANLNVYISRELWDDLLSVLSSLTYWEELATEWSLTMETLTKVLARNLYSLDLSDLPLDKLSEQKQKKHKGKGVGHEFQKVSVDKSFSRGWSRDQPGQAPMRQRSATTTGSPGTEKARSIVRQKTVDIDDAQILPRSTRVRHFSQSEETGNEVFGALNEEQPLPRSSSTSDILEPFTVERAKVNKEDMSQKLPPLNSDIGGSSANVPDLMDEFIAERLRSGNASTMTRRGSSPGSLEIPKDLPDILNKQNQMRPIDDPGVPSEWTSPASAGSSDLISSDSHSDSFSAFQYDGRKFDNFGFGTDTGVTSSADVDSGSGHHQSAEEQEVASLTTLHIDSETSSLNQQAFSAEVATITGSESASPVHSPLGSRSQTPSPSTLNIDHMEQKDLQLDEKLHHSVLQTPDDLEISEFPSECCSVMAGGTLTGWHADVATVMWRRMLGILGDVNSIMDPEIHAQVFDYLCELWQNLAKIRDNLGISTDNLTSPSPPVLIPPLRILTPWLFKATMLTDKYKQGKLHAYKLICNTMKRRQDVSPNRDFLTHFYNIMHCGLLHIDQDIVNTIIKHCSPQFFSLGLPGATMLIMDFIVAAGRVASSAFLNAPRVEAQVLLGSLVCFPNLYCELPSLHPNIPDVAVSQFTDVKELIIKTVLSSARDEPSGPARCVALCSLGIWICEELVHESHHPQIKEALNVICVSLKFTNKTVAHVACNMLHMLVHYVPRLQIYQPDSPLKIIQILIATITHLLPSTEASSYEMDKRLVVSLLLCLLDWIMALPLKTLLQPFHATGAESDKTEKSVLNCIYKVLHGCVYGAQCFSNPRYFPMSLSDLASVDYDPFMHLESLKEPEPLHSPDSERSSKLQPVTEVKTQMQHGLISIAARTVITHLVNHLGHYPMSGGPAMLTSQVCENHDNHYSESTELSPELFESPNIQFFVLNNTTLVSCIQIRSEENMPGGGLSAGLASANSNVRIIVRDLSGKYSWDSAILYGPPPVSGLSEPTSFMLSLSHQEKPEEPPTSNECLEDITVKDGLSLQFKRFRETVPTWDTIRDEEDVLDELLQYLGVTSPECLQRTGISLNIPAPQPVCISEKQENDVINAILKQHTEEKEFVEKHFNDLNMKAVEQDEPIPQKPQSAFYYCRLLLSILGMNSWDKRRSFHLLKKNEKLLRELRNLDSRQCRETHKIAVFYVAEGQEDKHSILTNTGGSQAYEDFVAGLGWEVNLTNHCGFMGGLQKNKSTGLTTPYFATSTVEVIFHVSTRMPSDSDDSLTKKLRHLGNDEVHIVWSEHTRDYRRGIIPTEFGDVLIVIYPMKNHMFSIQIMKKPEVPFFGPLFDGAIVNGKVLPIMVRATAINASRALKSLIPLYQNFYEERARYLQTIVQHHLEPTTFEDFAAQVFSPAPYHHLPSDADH
# [27] = target: proteins of U3A human fibrosarcoma cells (4462 proteins detected) (Homo sapiens, UniProt O95218); settings: protein ZRANB2, U3A cells
# proteins of U3A human fibrosarcoma cells (4462 proteins detected) (Homo sapiens, UniProt O95218), sequence (O95218 whole entry): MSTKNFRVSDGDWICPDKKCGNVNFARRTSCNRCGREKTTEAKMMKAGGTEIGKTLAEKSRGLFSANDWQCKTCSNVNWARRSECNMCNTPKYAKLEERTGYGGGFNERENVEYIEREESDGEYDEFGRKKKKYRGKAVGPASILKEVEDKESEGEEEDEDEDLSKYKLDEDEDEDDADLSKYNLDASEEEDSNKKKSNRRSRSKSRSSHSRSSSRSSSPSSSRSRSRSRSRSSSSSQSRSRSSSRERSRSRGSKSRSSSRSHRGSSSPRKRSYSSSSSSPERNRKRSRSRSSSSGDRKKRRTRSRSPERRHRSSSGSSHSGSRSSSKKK
# [28] = target: proteins of U3A human fibrosarcoma cells (4462 proteins detected) (Homo sapiens, UniProt Q9NXR8); settings: protein ING3, U3A cells
# [29] = target: proteins of U3A human fibrosarcoma cells (4462 proteins detected) (Homo sapiens, UniProt P15153); settings: protein RAC2; U3A, 10 μM, 2 h
# [30] = target: proteins of U3A human fibrosarcoma cells (4462 proteins detected) (Homo sapiens, UniProt P42766); settings: protein RPL35; U3A cells
# proteins of U3A human fibrosarcoma cells (4462 proteins detected) (Homo sapiens, UniProt Q99470), sequence (Q99470 19-211): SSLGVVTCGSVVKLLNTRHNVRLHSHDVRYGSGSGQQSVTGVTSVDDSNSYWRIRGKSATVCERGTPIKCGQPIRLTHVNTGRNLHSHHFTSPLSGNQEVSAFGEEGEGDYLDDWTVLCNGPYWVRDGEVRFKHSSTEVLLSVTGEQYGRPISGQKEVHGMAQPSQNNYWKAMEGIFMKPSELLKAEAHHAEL
smiles,measurement,setting,value
CCc1nc(N)nc(N)c1-c1ccc(Cl)cc1 [pyrimethamine],Log2 (PYR/DMSO),[1],0.18
same,Log2 (PYR/DMSO),[2],-0.04
same,Log2 (PYR/DMSO),[3],0.14
same,Log2 (PYR/DMSO),[4],0.18
same,Log2 (PYR/DMSO),[5],-0.04
same,Log2 (PYR/DMSO),[6],-0.03
same,Log2 (PYR/DMSO),[7],0.13
same,Log2 (PYR/DMSO),[8],0.15
same,Log2 (PYR/DMSO),[9],0.18
same,Log2 (PYR/DMSO),[10],0.21
same,Log2 (PYR/DMSO),[11],-0.05
same,Log2 (PYR/DMSO),[12],0.14
same,Log2 (PYR/DMSO),[13],0.15
same,"Log2 (PYR/DMSO), S100A4",[14],-0.16
same,Log2 (PYR/DMSO),[15],0.16
same,Log2 (PYR/DMSO),[16],-0.04
same,Log2 (PYR/DMSO),[17],0.16
same,Log2 (PYR/DMSO),[18],-0.04
same,Log2 (PYR/DMSO),[19],-0.03
same,Log2 (PYR/DMSO),[20],-0.04
same,Log2 (PYR/DMSO),[21],-0.04
same,Log2 (PYR/DMSO),[22],0.19
same,Log2 (PYR/DMSO),[23],0.19
same,Log2 (PYR/DMSO),[24],0.22
same,"Log2 (PYR/DMSO), RBCK1",[25],-0.16
same,"Log2 (PYR/DMSO), RALGAPA1",[26],-0.50
same,Log2 (PYR/DMSO),[27],-0.04
same,Log2 (PYR/DMSO),[28],-0.04
same,"Log2 (PYR/DMSO), RAC2",[29],-0.15
same,Log2 (PYR/DMSO),[30],0.20
